For assay [1], the system named is manufactured seed. Put plainly: Root initiation with palatinose in synthetic gametophyte of manufactured seed. The following applies: palatinose from 0 to 40 g/l in 20 g/l increments; base sugar sucrose or glucose. Format: in vivo. The source says:
The beneficial properties of palatinose are not limited to multiplication. The addition of palatinose to the synthetic gametophyte of manufactured seed has benefits for root initiation. […] This is true when the base sugar was sucrose or glucose.

For assay [2], the system named is loblolly pine embryos. Put plainly: Germination and germinant organ lengths of resulting embryos, Example 2. Format: in vivo.
Text: As used herein, the term “germination” refers to a physiological process that results in the elongation and growth of a plant embryo organs (root, hypocotyls, cotyledons) and initiation of leaves (epicotyl by the shoot apex located at the base of the cotyledons) after 1 week in the dark followed by 6 weeks in a light room at room temperature.
As used herein, the term “category 1” germination is defined by presence of a minimum of a 3 mm root, and a tuft of at least 5 epicotyl leaves, each approximately 5 mm long.
“Category 2” germination is defined as for category 1, but where epicotyls leaf presence is observed, but not meeting the 5 leaves by 5 mm length specification.
Several parameters may be measured to determine the quality of the germinants, such as root, hypocotyl, longest cotyledon leaf length, and epicotyls leaf length. […]
The responses analyzed for this report are the weekly growth, embryos per d-frame, category 1 germination, and for category 1+2: germination, germinants per d-frame, root length, the hypocotyl length, and the epicotyl length.
The proportion responses are analyzed using a generalized linear model with a logit link and binomial distribution after categorizing as a 0/1 response. The continuous responses were analyzed with a mixed linear model after taking the log transformation to account for increasing variability with higher means. […]
The subject of assay [3] is loblolly pine SE. Put plainly: Development stage studies with palatinose in maltose and glucose media. It counts as cell-based. The following applies: standard maltose and glucose media. The source says:
In loblolly pine SE studies, palatinose was initially used as a non-metabolizable sugar for supplementing osmotic level. […] When used as a part of liquid multiplication media its effect depended on the sugar moieties it was associated with, and its ratio with those moieties. When paired with maltose alone, growth was largely or completely halted depending on sugar ratio, whereas when used with glucose, growth was like control (maltose only).

Turning to `O=C(CO)[C@@H](O)[C@H](O)[C@H](O)CO[C@H]1O[C@H](CO)[C@@H](O)[C@H](O)[C@H]1O` [palatinose, 6-O-α-d-glucopyranosyl-D-fructose], in assay [1], the root presence result is listed as “root presence improved”. For the same compound, in assay [2] (combining the outcomes of 3, 5, and 7 weeks of treatment), the “category 1 germination percentage” value is 9.1%. Besides, the embryo formation result in assay [3] is given as “inhibited embryo formation”.

For the compound `OC[C@H]1O[C@H](O[C@H]2O[C@H](CO)[C@@H](O)[C@H](O)[C@H]2O)[C@H](O)[C@@H](O)[C@@H]1O` [trehalose], the “Category 1 germination” value in assay [2] (Table 7 comparison) is reported as “no evidence that adding trehalose had an effect”.
